The text below walks through data of patent US11953501B2, “Compositions and methods to detect gastrointestinal disease” (The Board of Supervisors of Louisiana State University and …, priority 2016, dated 2024).

The target of this assay is T1, intestinal alkaline phosphatase (iAP) (Homo sapiens, UniProt P09923).
T1 construct: The supernatant contained proteins secreted in the gut lumen, on which our analysis is focused; from tissue; host or cells: stool supernatant (200 mg/mL slurry in water, centrifuged) from human preterm infants
T1 sequence (P09923 20-503 limits assumed): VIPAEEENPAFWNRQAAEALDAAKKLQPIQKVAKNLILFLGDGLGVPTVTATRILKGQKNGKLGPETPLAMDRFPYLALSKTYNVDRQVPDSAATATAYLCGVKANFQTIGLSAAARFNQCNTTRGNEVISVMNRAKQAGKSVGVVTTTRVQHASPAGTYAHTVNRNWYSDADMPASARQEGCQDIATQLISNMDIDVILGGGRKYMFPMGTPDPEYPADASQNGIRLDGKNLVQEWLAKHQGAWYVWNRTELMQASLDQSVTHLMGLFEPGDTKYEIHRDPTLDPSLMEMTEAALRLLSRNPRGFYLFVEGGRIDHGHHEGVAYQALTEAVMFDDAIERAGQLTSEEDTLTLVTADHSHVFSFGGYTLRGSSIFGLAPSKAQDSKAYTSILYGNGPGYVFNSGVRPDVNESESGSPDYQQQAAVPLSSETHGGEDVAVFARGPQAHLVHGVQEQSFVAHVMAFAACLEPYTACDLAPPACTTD
Put plainly: Fecal iAP catalytic activity, 4-methylumbelliferyl phosphate (MUP) fluorometric assay with and without L-phenylalanine. The assay is classed as biochemical. The conditions noted are these: 10 mM L-Phe, spread is SD, read-out: inhibition of AP activity by L-Phe. How it is done: Fecal iAP catalytic activity: Alkaline phosphatase activity was measured with use of 4-methylumbelliferyl phosphate (MUP) as a fluorescent substrate (Abcam, ab83371) in the presence and absence of L-phenylalanine, an inhibitor of iAP. Relative fluorescence units (RFUs) at 360/440 nm were measured using a Spectra Max M2e spectrophotometer (Molecular Devices, Sunnyvale, CA). Ninety-six-well black optical bottom plates were used. Standards and negative controls were prepared for each plate run. Total AP activity was determined as: AP activity (mU/mL)=(B×dilution factor)/(T×V), in which B is nmol of product; V is volume of sample added to the well; T is reaction time; and U is the amount of enzyme causing hydrolysis of 1 μmol of MUP per minute at pH 10.0 and 25° C. […]
Fecal iAP Activity—Alkaline phosphatase activity was ascertained with the use of 4-methylumbelliferyl phosphate as a fluorescent substrate ab83371 (Abeam). […] Relative fluorescence units (RFUs) at 360/440 nm wavelengths were measured using a Spectra Max M2e spectrophotometer (Molecular Devices, Sunnyvale, CA). […] Reaction wells for samples, standards and negative background controls were prepared each time the assay was performed and total alkaline phosphatase activity was determined using: ALP activity (mU/ml)=(B/T)/V x dilution factor […]

Like-named read-outs stand apart in the source and are kept apart here.

One may read the inhibition as the drop in the measured response relative to a control, in per cent. Turning to `N[C@@H](Cc1ccccc1)C(=O)O` [L-Phe, L-phenylalanine], the inhibition at 10000 µM runs as follows: (stool samples from NEC patients) 90%; (stool samples from control patients) 91%.
